# Source: US7612107B2, “Treatment and inhibition of disease conditions using flexible heteroarotinoids” (The Board of Regents of the University of Oklahoma, priority 2005, dated 2009)
# Where two headings read alike, the source gives them in different places.
# Tests used:
# [1] = test system: organotypic cultures of normal endometrial cells; experiment: Chemoprevention in DMBA-treated endometrial organotypic cultures; format: cell-based; conditions: histology and karyometric analysis
# Excerpt: Untreated: The specimen is cellular with both surface and mid-gel cells presence in abundance. Two cell types are clearly present. One appears to be stromal. The nuclei are thin and spindle shaped and the cytoplasm is similar. When cut in cross-section the nuclei are very small and round and hyperchromatic. The other cells have large, oval to almost boxcar nuclei with small nucleoli and abundant cytoplasm. Numerous mitosis are present. The epithelial cells are almost syncitial in nature and appear to cling to one another. With DMBA Carcinogen: The specimen is cellular. The cells present have lost their cytoplasm. There is more pleomorphism of the cells and many are very hyperchromatic. Mitoses are very numerous-approximately 2× the number in untreated. Cells no longer are together but are distinct one from another. Stromal cells intermix with the epithelial cells. […]
# FIG. 19 illustrates a typical experiment in which organotypic cultures of normal endometrial cells were treated with a carcinogen called DMBA and developed the cancer phenotype. […] All segmented nuclei were then subjected to texture feature extraction using TICAS software, resulting in 95 texture features for each nucleus that were subjected to quantitative analysis.
# [2] = test system: Thymidine Phosphorylase (TP); experiment: Real time rt-PCR and Western blot validation, thymidine phosphorylase; format: cell-based; conditions: OVCAR-3 1 μM (rt-PCR); A2780 10 μM (Western)
# Method: FIG. 13. Real Time rt-PCR validation of SHetA2 inhibition of TP and TSP-1 mRNA Expression. OVCAR-3 cultures were treated with 1 μM SHetA2 for the indicated period of time prior to harvesting the cells and isolating RNA. cDNA was prepared and used in real time rt-PCR reactions. Real time rt-PCR was performed on cDNA from cultures various treatment times.
# FIG. 14. Western blot validation of SHetA2 inhibition of TP and TSP4 protein expression. A2780 ovarian cancer cells were treated with 10 μM SHetA2 for the indicated amounts of time. Equal amounts of whole cell protein extracts were evaluated by Western blot.
# Thrombospondin 4 (TSP4) = experiment: Real time rt-PCR and Western blot validation, thrombospondin 4; format: cell-based; conditions: OVCAR-3 1 μM (rt-PCR); A2780 10 μM (Western)
# Raldh2-/- embryos = conditions: for No. of −/− rescued / No. of −/− unrescued: E10.25; for Teratogenesis: mouse, in vivo, po
# Method: Briefly, retinoids were dissolved in corn oil and administered orally to timed-pregnant Raldh2_/_mice at 12-h intervals on E7.25, E7.75, and E8.25. Dosages varied from 0.025 to 25 mg/kg. At E10.25, embryos were analyzed morphologically to determine whether Raldh2_/_embryos were rescued or whether wild-type embryos had suffered teratogenesis. Detection of embryonic RA was performed in situ in embryos carrying the RARE-lacZ RA-reporter gene by staining for beta-galactosidase activity for 10 h (45).
# A mouse model that lacks retinaldehyde dehydrogenase (Raldh2) due to null mutations was used to test the ability of Flex-Hets to substitute for retinoic acid (RA) and induce birth defects. […] We examined the relative ability of all-trans-RA, 9-cis-RA, receptor-specific synthetic retinoids and retinoic acid receptor independent Flex-Hets to rescue the Raldh2_/_embryonic lethal phenotype.
structure (smiles),measurement,setting,value
CC1(C)CC(C)(C)c2cc(NC(=S)Nc3ccc([N+](=O)[O-])cc3)ccc2S1 [SHetA2],Development of the cancer phenotype after DMBA carcinogen,[1],prevented the development of this phenotype
same,Expression of TP at the RNA and protein levels,[2],inhibit expression
same,Expression of TSP-4 at the RNA and protein levels,Thrombospondin 4 (TSP4),inhibit expression
same,Rescue of Raldh2−/− embryos (in words),Raldh2-/- embryos; 2.5 mg/kg,no rescue
same,Rescue of Raldh2−/− embryos (in words),Raldh2-/- embryos; 10 or 25 mg/kg,no rescue
same,No. of −/− rescued,Raldh2-/- embryos; Dose 2.5 mg/kg oral,0
same,No. of −/− unrescued,Raldh2-/- embryos; Dose 2.5 mg/kg oral,1
same,No. of −/− rescued,Raldh2-/- embryos; Dose 10 mg/kg oral,0
same,No. of −/− unrescued,Raldh2-/- embryos; Dose 10 mg/kg oral,5
same,No. of −/− rescued,Raldh2-/- embryos; Dose 25 mg/kg oral,0
same,No. of −/− unrescued,Raldh2-/- embryos; Dose 25 mg/kg oral,1
same,Teratogenesis,Raldh2-/- embryos; 2.5 mg/kg,0
same,Teratogenesis,Raldh2-/- embryos; 10 mg/kg,0
same,Teratogenesis,Raldh2-/- embryos; 25 mg/kg,0
